Patent US9126966B2, “Cationic lipids and methods of use thereof” (Protiva Biotherapeutics, Inc., priority 2011, dated 2015)

Tested on: Liver ApoB mRNA
Assay: Liver ApoB mRNA knockdown after IV injection of LNP formulations, branched DNA assay (QuantiGene) relative to GAPDH
Type: in vivo, female Balb/c mice
Details: 1:57 LNP with ApoB siRNA; for ApoB knockdown relative to PBS control: IV 0.033 mg/kg total siRNA, standard deviation in brackets; for ApoB knockdown relative to PBS control / ApoB knockdown relative PBS control: liver mRNA at 48 hours; for ApoB-silencing activity of LNP formulations (in words): IV 0.033 mg/kg, summary of Table 3
Protocol: (§1) LNP formulations were administered by IV injection at 0.033 mg/kg total siRNA dose into female Balb/c mice (n=3 per group). Liver ApoB mRNA levels were evaluated at 48 hours after LNP administration by a branched DNA assay (QuantiGene assay) to assess ApoB mRNA relative to the housekeeping gene GAPDH.
as §1, with “intravenous” for “IV”, “doses of 0.0075, 0.015 and 0.03” for “0.033”, “evaluated” for “evaluated at”, “and standardized” for “to assess ApoB mRNA”

Compound | ApoB knockdown relative to PBS control | ApoB-silencing activity of LNP formulations (in words) | ApoB knockdown relative PBS control (IV 0.0075 mg/kg total siRNA) [%] | ApoB knockdown relative PBS control (IV 0.015 mg/kg total siRNA) [%] | ApoB knockdown relative PBS control (IV 0.03 mg/kg total siRNA) [%] | Potency of LNP formulations compared with reference lipid (in words) (IV 0.0075, 0.015 and 0.03 mg/kg, summary of Table 5)
CCCCC/C=C\C/C=C\CCCCCCCCC1CC(CCCCCCC/C=C\C/C=C\CCCCC)OC(CCN(C)C)O1 (centres unmarked) [Compound 8, 2-(4-((8Z,11Z)-heptadeca-8,11-dien-1-yl)-6-((9Z,12Z)-octadeca-9,12-dien-1-yl)-1,3-dioxan-2-yl)-N,N-dimethylethanamine] | −71 (±2.7) % | particularly potent ApoB-silencing activity | – | – | – | –
CCCCC/C=C\C/C=C\CCCCCCCCC1(CCCCCCCC/C=C\C/C=C\CCCCC)OCC(CCN(C)C)O1 (centres unmarked) [Compound C2K, 2,2-dilinoleyl-4-(2-dimethylaminoethyl)[1,3]-dioxolane, reference compound] | – | – | −25 | −41 | −54 | –
CCCCC/C=C\C/C=C\CCCCCCCCC1CC(CCCCCCC/C=C\C/C=C\CCCCC)OC(CCCN(C)C)O1 (centres unmarked) [Compound 9, 3-(4-((8Z,11Z)-heptadeca-8,11-dien-1-yl)-6-((9Z,12Z)-octadeca-9,12-dien-1-yl)-1,3-dioxan-2-yl)-N,N-dimethylpropan-1-amine] | −80 (±3.3) % | particularly potent ApoB-silencing activity | −39 | −51 | −73 | more potent than LNP formulations containing C2K
